From ChEMBL document CHEMBL1201862, “PubChem BioAssay data set” (2004)
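48-hour exposure; five concentrations; linearly interpolated endpoints. Here, GI50 denotes the concentration required for 50% inhibition of growth.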 Calls of active or inactive are those of the source. Rule as the data show it: active = GI50 up to about 1.1 µM and inactive = higher.

Columns and labels:
Test in all cases: NCI anticancer screen, dose series, 48 h
BT-549 = system: BT-549
CCRF-CEM = system: CCRF-CEM
HCT-15 = system: HCT-15
K562 = system: K562
KM12 = system: KM12
M14 = system: M14
Malme-3M = system: Malme-3M
NCI-H23 = system: NCI-H23
NCI-H460 = system: NCI-H460
NCI/ADR-RES = system: NCI/ADR-RES
RPMI-8226 = system: RPMI-8226
SF-268 = system: SF-268
SK-MEL-28 = system: SK-MEL-28
SNB-19 = system: SNB-19
SNB-75 = system: SNB-75
SW-620 = system: SW-620
UACC-257 = system: UACC-257
UACC-62 = system: UACC-62
CAKI-1 = system: CAKI-1
HOP-92 = system: HOP-92

SMILES	GI50 (BT-549)	GI50 (CCRF-CEM)	GI50 (HCT-15) [µM]	GI50 (K562)	GI50 (KM12)	GI50 (M14)	GI50 (Malme-3M)	GI50 (NCI-H23)	GI50 (NCI-H460)	GI50 (NCI/ADR-RES)	GI50 (RPMI-8226)	GI50 (SF-268)	GI50 (SK-MEL-28)	GI50 (SNB-19)	GI50 (SNB-75)	GI50 (SW-620)	GI50 (UACC-257)	GI50 (UACC-62)	GI50 (CAKI-1)	GI50 (HOP-92)
CC(=O)OC12CC(C(F)(F)F)(C(F)(F)F)OC1(OC(C)=O)CC(C(F)(F)F)(C(F)(F)F)O2 (stereo not given)	5.42 µM (inactive)	2.04 µM (inactive)	11.5	0.612 µM (active)	2.33 µM (inactive)	3.72 µM (inactive)	4.86 µM (inactive)	1.23 µM (inactive)	4.05 µM (inactive)	10.9 µM (inactive)	0.7 µM (active)	1.58 µM (inactive)	4.54 µM (inactive)	3.15 µM (inactive)	11.1 µM (inactive)	5.43 µM (inactive)	3.13 µM (inactive)	2.66 µM (inactive)		
CN(C(=O)[C@@H](NC(=O)OC(C)(C)C)c1ccccc1)[C@H]1CCCC[C@@H]1N1CCCC1	> 100 µM (inactive)		> 100	> 100 µM (inactive)	> 100 µM (inactive)	> 100 µM (inactive)		> 100 µM (inactive)		> 100 µM (inactive)	> 100 µM (inactive)	> 100 µM (inactive)	> 100 µM (inactive)	> 100 µM (inactive)		> 100 µM (inactive)	72.6 µM (inactive)	> 100 µM (inactive)	> 100 µM (inactive)	
CC1CCCC2=C1C(c1ccc(Cl)cc1)n1c(s/c(=C\c3ccc(Cl)cc3)c1=O)=N2 (stereo not given)	22.1 µM (inactive)	> 100 µM (inactive)	> 100	> 100 µM (inactive)	> 100 µM (inactive)	> 100 µM (inactive)					> 100 µM (inactive)	> 100 µM (inactive)	> 100 µM (inactive)	> 100 µM (inactive)	> 100 µM (inactive)	> 100 µM (inactive)	> 100 µM (inactive)	> 100 µM (inactive)	> 100 µM (inactive)	> 100 µM (inactive)
CCOC(=O)c1nnc2c(C#N)c(-c3ccccc3)c(C)n2c1N	40.4 µM (inactive)	39.7 µM (inactive)	37.5	31.8 µM (inactive)	30.6 µM (inactive)	34.9 µM (inactive)	20.7 µM (inactive)	38.3 µM (inactive)	39.8 µM (inactive)	38.8 µM (inactive)	22.7 µM (inactive)	37.7 µM (inactive)	21.6 µM (inactive)	21.3 µM (inactive)		40.6 µM (inactive)	25.4 µM (inactive)	23.9 µM (inactive)	52.6 µM (inactive)	
CCOC(=O)C1(C(=O)OCC)C[C@]23OCCC(=O)[C@H]2[C@H]2C(=O)OC(C)(C)O[C@]23C1		> 100 µM (inactive)	> 100		> 100 µM (inactive)	> 100 µM (inactive)	> 100 µM (inactive)	> 100 µM (inactive)	> 100 µM (inactive)	> 100 µM (inactive)	> 100 µM (inactive)	> 100 µM (inactive)	> 100 µM (inactive)	> 100 µM (inactive)	> 100 µM (inactive)	> 100 µM (inactive)	> 100 µM (inactive)	> 100 µM (inactive)	> 100 µM (inactive)	> 100 µM (inactive)
c1ccc2cc(CNCCOCCOCCNCc3ccc4ccccc4c3)ccc2c1	1.78 µM (inactive)	1.97 µM (inactive)	1.94	0.446 µM (active)	1.6 µM (inactive)	1.95 µM (inactive)	1.76 µM (inactive)	2 µM (inactive)	1.64 µM (inactive)		1.19 µM (inactive)	1.97 µM (inactive)	1.97 µM (inactive)	2.31 µM (inactive)	1.95 µM (inactive)	1.91 µM (inactive)	1.49 µM (inactive)	2.06 µM (inactive)	1.81 µM (inactive)	1.52 µM (inactive)
Cc1ccc(NC(=O)NC(=O)c2ccc([N+](=O)[O-])cc2[N+](=O)[O-])cc1Oc1ncc(Cl)cn1	17.9 µM (inactive)	0.292 µM (active)	0.44	0.275 µM (active)	0.252 µM (active)	0.38 µM (active)	0.0925 µM (active)	0.564 µM (active)	0.338 µM (active)		0.292 µM (active)	0.713 µM (active)	2.9 µM (inactive)	0.48 µM (active)	0.0752 µM (active)	0.332 µM (active)	0.689 µM (active)	0.229 µM (active)	0.479 µM (active)	
Cn1nc(-c2ccccc2)c2c(-c3ccccc3)c3cc(Cl)ccc3nc21	> 100 µM (inactive)	0.0311 µM (active)	12.7	> 100 µM (inactive)	> 100 µM (inactive)	> 100 µM (inactive)	> 100 µM (inactive)	> 100 µM (inactive)	75.7 µM (inactive)		> 100 µM (inactive)	> 100 µM (inactive)	> 100 µM (inactive)	> 100 µM (inactive)	> 100 µM (inactive)	> 100 µM (inactive)	> 100 µM (inactive)	> 100 µM (inactive)	> 100 µM (inactive)	
